ChEMBL document CHEMBL3872248, “Discovery and initial optimization of alkoxyanthranilic acid derivatives as inhibitors of HCV NS5B polymerase” (Bioorg Med Chem Lett, 2017)
The source made the active and inactive calls. The rule behind the calls is not given here.

Tested on: Hepatitis C virus
Experiment: Antiviral activity against HCV genotype 1b Con1 expressing NS3 protease infected in human Huh-7 cells assessed as reduction in viral RNA replication measured after 3 days by EnduRen-based luciferase reporter gene assay
Assay type: functional, cell-based, Hepacivirus hominis
Conditions: genotype 1b Con1, Huh-7, 72 h

EC50 | Compound
> 100 µM | O=C(O)CNC(=O)c1ccc(OCc2ccc(Cl)cc2)c(N2Cc3ccccc3C2=O)c1

Target: RNA-directed RNA polymerase (Hepacivirus hominis, UniProt O39930, C316Y)
Experiment: Inhibition of wild-type HCV genotype 1b Con1 NS5B RNA dependent RNA polymerase C316Y mutant expressed in Escherichia coli BL21(DE3) Star assessed as inhibition of [alpha-32P]UTP incorporation using polyrA/T12 as template/primer measured after 60 mins by TopCount NXT method
Set-up: species or system Hepatitis C virus (isolate Con1)
Conditions: not given

Sequence of RNA-directed RNA polymerase (O39930 entry or part of it C316Y): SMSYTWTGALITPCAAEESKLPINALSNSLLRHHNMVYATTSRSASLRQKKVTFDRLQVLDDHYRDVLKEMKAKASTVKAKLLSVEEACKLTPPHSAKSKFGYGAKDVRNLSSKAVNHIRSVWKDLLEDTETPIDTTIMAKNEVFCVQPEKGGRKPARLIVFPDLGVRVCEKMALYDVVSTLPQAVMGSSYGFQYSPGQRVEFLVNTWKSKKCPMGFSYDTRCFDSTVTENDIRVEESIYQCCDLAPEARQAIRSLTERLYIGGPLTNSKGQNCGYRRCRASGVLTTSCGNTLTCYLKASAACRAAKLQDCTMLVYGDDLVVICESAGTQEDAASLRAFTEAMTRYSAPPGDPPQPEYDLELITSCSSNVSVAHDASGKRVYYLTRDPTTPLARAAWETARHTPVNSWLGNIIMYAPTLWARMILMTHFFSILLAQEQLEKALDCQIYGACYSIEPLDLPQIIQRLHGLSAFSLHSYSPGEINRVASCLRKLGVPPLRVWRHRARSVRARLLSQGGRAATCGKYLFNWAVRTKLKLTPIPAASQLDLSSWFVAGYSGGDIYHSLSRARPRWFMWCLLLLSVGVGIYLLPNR

Compound | IC50
O=C(Nc1c(OCc2ccc(Cl)cc2)cccc1C(=O)O)c1ccccc1 | > 50 µM

Tested on: not listed separately
Experiment: Inhibition of wild-type HCV genotype 1b Con1 C-terminal truncated NS5B RNA dependent RNA polymerase expressed in Escherichia coli BL21(DE3) Star assessed as inhibition of [alpha-32P]UTP incorporation using polyrA/T12 as template/primer measured after 60 mins by TopCount NXT method
Set-up: species or system Hepatitis C virus (isolate Con1)
Conditions: not given

IC50 | Compound
6.6 µM | O=C(O)c1cccc(OCc2ccc(Cl)cc2)c1N1Cc2c(O)cccc2C1=O
0.88 µM | O=C(O)CNC(=O)c1ccc(OCc2ccc(Cl)cc2)c(N2Cc3ccccc3C2=O)c1
8.7 µM | O=C(O)c1cccc(OCc2ccc(Cl)cc2)c1N1Cc2ccccc2C1=O
4.6 µM | O=C(Nc1c(OCc2ccc(Cl)cc2)cccc1C(=O)O)c1ccccc1O
24 µM | CS(=O)(=O)NC(=O)c1cccc(OCc2ccc(Cl)cc2)c1NC(=O)c1ccccc1
> 50 µM | O=C(NCCO)c1ccc(OCc2ccc(Cl)cc2)c(NC(=O)c2ccccc2)c1
> 50 µM | O=C(Nc1c(OCc2ccc(Cl)cc2)cccc1C(=O)NCCO)c1ccccc1
1.2 µM | O=C(O)COc1ccccc1C(=O)Nc1c(OCc2ccc(Cl)cc2)cccc1C(=O)O
11 µM | O=C(O)CCCOc1cccc2c1CN(c1c(OCc3ccc(Cl)cc3)cccc1C(=O)O)C2=O
8.3 µM | O=C(O)c1ccc(OCc2ccc(Cl)cc2)c(NC(=O)c2ccccc2)c1
2.1 µM | O=C(O)CCCOc1ccccc1C(=O)Nc1c(OCc2ccc(Cl)cc2)cccc1C(=O)O
> 50 µM | CN(C(=O)c1ccccc1)c1c(OCc2ccc(Cl)cc2)cccc1C(=O)O
6.2 µM | O=C(O)CNC(=O)c1ccc(OCc2ccc(Cl)cc2)c(NC(=O)c2ccccc2)c1
25 µM | O=C(Nc1c(OCc2ccc(Cl)cc2)cccc1-c1nnn[nH]1)c1ccccc1
15 µM | CS(=O)(=O)NC(=O)c1ccc(OCc2ccc(Cl)cc2)c(NC(=O)c2ccccc2)c1
4.4 µM | O=C(O)COc1cccc2c1CN(c1c(OCc3ccc(Cl)cc3)cccc1C(=O)O)C2=O
32 µM | O=C(O)c1cccc(OCc2ccc(Cl)cc2)c1N1CCCc2ccccc2C1=O
10 µM | O=C(O)Cc1cccc(OCc2ccc(Cl)cc2)c1NC(=O)c1ccccc1
1.7 µM | O=C(O)/C=C/c1cccc2c1CN(c1c(OCc3ccc(Cl)cc3)cccc1C(=O)O)C2=O

Compound | IC50
O=C(Nc1c(OCc2ccc(Cl)cc2)cccc1C(=O)O)c1ccccc1 | 8.4 µM

Tested on: Hepatitis C virus
Experiment: Antiviral activity against HCV genotype 1b Con1 expressing C-terminal truncated NS5B assessed as inhibition of viral RNA production at 50 uM by high throughput screening method
Assay type: functional
Conditions: Hepacivirus hominis

Compound | inhibition
O=C(Nc1c(OCc2ccc(Cl)cc2)cccc1C(=O)O)c1ccccc1 | Active
